Some targets named below: Histamine H1 receptor (Cavia porcellus, UniProt P31389); Hrh3 protein (Rattus norvegicus, UniProt Q5PPG3); Nischarin (Rattus norvegicus, UniProt Q4G017); Histamine H2 receptor (Cavia porcellus, UniProt P47747).

pKi: −log10 of the molar value.

The record followed here is BindingDB's records for doi:10.1124/jpet.103.049254 (Schering-Plough Research Institute, 2003).

Sequence of Histamine H2 receptor (P47747 whole entry): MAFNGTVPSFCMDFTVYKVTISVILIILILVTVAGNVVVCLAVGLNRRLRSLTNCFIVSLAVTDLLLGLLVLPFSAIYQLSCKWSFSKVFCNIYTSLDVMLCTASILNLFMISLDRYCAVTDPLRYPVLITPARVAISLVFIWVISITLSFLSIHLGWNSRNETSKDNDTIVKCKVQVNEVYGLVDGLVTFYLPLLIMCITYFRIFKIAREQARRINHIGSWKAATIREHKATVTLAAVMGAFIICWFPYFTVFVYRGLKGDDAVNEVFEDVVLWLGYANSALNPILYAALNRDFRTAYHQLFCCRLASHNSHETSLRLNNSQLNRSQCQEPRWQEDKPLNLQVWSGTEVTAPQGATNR
Sequence of Hrh3 protein (Q5PPG3 whole entry): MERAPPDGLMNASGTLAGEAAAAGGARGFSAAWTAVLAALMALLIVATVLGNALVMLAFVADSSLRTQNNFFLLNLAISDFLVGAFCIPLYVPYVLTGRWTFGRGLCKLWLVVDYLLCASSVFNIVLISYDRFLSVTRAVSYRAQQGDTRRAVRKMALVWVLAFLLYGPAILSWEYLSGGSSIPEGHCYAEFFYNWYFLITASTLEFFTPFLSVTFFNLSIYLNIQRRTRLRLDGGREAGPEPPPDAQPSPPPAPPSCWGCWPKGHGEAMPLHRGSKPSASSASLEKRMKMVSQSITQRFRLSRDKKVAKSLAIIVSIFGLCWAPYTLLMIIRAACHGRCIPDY
Sequence of Histamine H1 receptor (P31389 whole entry): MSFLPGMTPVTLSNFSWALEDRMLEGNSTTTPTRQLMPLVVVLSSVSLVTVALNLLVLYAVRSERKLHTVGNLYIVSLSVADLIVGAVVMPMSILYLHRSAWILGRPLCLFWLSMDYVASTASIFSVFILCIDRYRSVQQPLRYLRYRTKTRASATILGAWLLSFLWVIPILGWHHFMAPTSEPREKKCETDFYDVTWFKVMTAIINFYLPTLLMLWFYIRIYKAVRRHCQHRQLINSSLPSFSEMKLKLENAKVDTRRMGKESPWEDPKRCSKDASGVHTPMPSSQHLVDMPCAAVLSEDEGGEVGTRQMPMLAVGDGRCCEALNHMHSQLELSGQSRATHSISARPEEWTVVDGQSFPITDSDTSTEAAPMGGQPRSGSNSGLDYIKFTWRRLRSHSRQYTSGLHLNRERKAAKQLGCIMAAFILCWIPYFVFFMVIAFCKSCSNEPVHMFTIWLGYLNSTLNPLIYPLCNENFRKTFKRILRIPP
Sequence of Nischarin (Q4G017 whole entry): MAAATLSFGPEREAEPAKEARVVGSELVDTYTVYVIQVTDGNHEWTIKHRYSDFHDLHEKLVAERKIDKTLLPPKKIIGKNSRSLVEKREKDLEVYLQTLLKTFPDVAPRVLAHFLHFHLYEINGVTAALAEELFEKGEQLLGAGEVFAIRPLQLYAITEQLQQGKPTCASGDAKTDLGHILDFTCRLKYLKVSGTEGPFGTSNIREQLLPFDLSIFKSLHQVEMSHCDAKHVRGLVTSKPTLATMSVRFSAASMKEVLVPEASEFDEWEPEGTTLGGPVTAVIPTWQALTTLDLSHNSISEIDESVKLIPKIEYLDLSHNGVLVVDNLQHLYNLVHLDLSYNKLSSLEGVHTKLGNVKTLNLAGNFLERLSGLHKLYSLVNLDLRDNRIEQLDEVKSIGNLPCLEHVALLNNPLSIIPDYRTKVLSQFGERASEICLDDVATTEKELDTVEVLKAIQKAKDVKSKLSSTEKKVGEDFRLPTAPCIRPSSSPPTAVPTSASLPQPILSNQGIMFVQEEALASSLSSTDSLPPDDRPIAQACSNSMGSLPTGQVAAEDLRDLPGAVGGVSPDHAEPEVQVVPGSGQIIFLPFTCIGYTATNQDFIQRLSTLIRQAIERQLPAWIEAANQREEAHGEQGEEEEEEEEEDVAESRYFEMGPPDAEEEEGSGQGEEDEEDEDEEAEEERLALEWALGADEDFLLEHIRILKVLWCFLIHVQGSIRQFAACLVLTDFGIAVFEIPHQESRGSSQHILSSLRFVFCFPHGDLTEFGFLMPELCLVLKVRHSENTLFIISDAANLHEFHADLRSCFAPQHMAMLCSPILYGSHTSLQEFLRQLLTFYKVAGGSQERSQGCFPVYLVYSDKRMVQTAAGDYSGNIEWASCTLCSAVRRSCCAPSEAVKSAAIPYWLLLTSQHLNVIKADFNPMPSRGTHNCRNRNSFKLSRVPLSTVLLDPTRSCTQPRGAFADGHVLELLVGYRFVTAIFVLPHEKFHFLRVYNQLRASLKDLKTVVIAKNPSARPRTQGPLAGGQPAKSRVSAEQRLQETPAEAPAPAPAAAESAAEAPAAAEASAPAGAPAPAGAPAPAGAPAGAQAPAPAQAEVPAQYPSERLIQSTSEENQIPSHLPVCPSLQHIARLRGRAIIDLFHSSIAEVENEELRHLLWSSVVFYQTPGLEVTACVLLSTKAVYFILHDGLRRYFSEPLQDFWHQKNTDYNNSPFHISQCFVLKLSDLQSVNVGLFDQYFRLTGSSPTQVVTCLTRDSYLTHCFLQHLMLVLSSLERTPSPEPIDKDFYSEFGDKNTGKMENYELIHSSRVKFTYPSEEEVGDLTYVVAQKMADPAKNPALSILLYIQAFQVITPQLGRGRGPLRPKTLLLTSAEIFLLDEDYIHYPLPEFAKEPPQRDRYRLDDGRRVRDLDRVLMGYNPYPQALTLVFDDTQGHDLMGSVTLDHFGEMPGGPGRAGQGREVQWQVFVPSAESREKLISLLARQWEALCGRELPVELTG

The term pKi denotes −log10 of the Ki, conventionally taken in molar units. High values mean a low Ki, low ones a high Ki. As to `O=C(NCc1ccc(Cc2c[nH]cn2)cc1)Nc1cc(Cl)cc(Cl)c1`, the pKi is 6.00 on Histamine H1 receptor, 8.72 on Hrh3 protein, 6.81 at Nischarin and 6.00 at Histamine H2 receptor.
